Assay results: patent US20090156577A1, “7-AMINO ALKYLIDENYL-HETEROCYCLIC QUINOLONES AND NAPHTHYRIDONES” (priority 2004, published 2009)
Converted amounts (≈) assume the structure as drawn. Read-outs that look alike come from different tables or passages of the source.

Tested on: pathogenic bacteria
Test: MIC by microdilution broth method (NCCLS M7-A4), in vitro antibacterial activity
Type: cell-based
Experimental: Minimal inhibitory concentration (MIC) has been an indicator of in vitro antibacterial activity widely used in the art. The in vitro antimicrobial activity of the compounds was determined by the microdilution broth method following the test method from the National Committee for Clinical Laboratory Standards (NCCLS). This method is described in the NCCLS Document M7-A4, Vol. 17, No. 2, “Methods for Dilution Antimicrobial Susceptibility Test for Bacteria that Grow Aerobically—Fourth Edition”, which is incorporated herein by reference.
In this method two-fold serial dilutions of drug in cation adjusted Mueller-Hinton broth are added to wells in microdilution trays. The test organisms are prepared by adjusting the turbidity of actively growing broth cultures so that the final concentration of test organism after it is added to the wells is approximately 5×10^4 CFU/well.
Following inoculation of the microdilution trays, the trays are incubated at 35° C. for 16-20 hours and then read. […] The amount of growth in the wells containing the test compound is compared with the amount of growth in the growth-control wells (no test compound) used in each tray. As set forth in Table 5, compounds of the present invention were tested against a variety of pathogenic bacteria resulting in a range of activities depending on the organism tested.

[1] = Staphylococcus aureus, Organism A: Staphylococcus aureus OC4172, read-out: MIC
[2] = Streptococcus pneumoniae, ATCC49619, Organism E: Streptococcus pneumoniae ATCC 49619, read-out: MIC
[3] = Streptococcus pneumoniae, Organism B: fluoroquinolone-resistant clinical isolate of Streptococcus pneumoniae (QRDR amino acid substitutions)
[4] = Streptococcus pneumoniae, Organism C: fluoroquinolone-resistant clinical isolate of Streptococcus pneumoniae (QRDR amino acid substitutions)
[5] = Streptococcus pneumoniae, Organism D: fluoroquinolone-resistant clinical isolate of Streptococcus pneumoniae (QRDR amino acid substitutions)

Structure (SMILES)	MIC [1] [µg/mL]	MIC [2] [µg/mL]	MIC [3] [µg/mL]	MIC [4] [µg/mL]	MIC [5] [µg/mL]
NCC(Cl)=C1CN(c2nc3c(cc2F)c(=O)c(C(=O)O)cn3C2CC2)C1 [Compound 81, 7-[3-(2-Amino-1-chloro-ethylidene)-azetidin-1-yl}-1-cyclopropyl-6-fluoro-4-oxo-1,4-dihydro-[1,8]naphthyridine-3-carboxylic acid]	0.06 (≈ 0.158 µM)	0.25 (≈ 0.66 µM)	1 (≈ 2.64 µM)	2 (≈ 5.28 µM)	2 (≈ 5.28 µM)
NCC(F)=C1CN(c2c(F)cc3c(=O)c(C(=O)O)cn(C4CC4)c3c2OC(F)F)C1 [Compound 160, 7-[3-(2-Amino-1-fluoro-ethylidene)-azetidin-1-yl]-1-cyclopropyl-8-difluoromethoxy-6-fluoro-4-oxo-1,4-dihydro-quinoline-3-carboxylic acid]	0.06 (≈ 0.14 µM)	0.12 (≈ 0.281 µM)	2 (≈ 4.68 µM)	2 (≈ 4.68 µM)	1 (≈ 2.34 µM)
O=C(O)c1cn(C2CC2)c2nc(N3CCC(=CCO)CC3)c(F)cc2c1=O [Compound 163, 1-Cyclopropyl-6-fluoro-7-[4-(2-hydroxy-ethylidene)-piperidin-1-yl]-4-oxo-1,4-dihydro-[1,8]naphthyridine-3-carboxylic acid]	0.12 (≈ 0.321 µM)	1 (≈ 2.68 µM)	4 (≈ 10.7 µM)	4 (≈ 10.7 µM)	
O=C(O)c1cn(C2CC2)c2cc(N3CCC(=CCO)CC3)c(F)cc2c1=O [Compound 164, 1-Cyclopropyl-6-fluoro-7-[4-(2-hydroxy-ethylidene)-piperidin-1-yl]-4-oxo-1,4-dihydro-quinoline-3-carboxylic acid]	0.12 (≈ 0.322 µM)	2 (≈ 5.37 µM)	32 (≈ 85.9 µM)	> 32	
CC(C)NCC(Cl)=C1CCN(c2nc3c(cc2F)c(=O)c(C(=O)O)cn3C2CC2)CC1 [Compound 166, 7-[4-(1-Chloro-2-isopropylamino-ethylidene)-piperidin-1-yl]-1-cyclopropyl-6-fluoro-4-oxo-1,4-dihydro-[1,8]naphthyridine-3-carboxylic acid]	0.5 (≈ 1.11 µM)	1 (≈ 2.23 µM)		4 (≈ 8.91 µM)	4 (≈ 8.91 µM)
O=C(O)c1cn(C2CC2)c2nc(N3CCC(=C(F)CO)CC3)c(F)cc2c1=O [Compound 172, 1-Cyclopropyl-6-fluoro-7-[4-(1-fluoro-2-hydroxy-ethylidene)-piperidin-1-yl]-4-oxo-1,4-dihydro-[1,8]naphthyridine-3-carboxylic acid]	0.06 (≈ 0.153 µM)	1 (≈ 2.56 µM)	32 (≈ 81.8 µM)	16 (≈ 40.9 µM)	
CC1(C)CN(c2nc3c(cc2F)c(=O)c(C(=O)O)cn3C2CC2)CCC1=C(F)CN [Compound 175, 7-[4-(2-Amino-1-fluoro-ethylidene)-3,3-dimethyl-piperidin-1-yl]-1-cyclopropyl-6-fluoro-4-oxo-1,4-dihydro-[1,8]naphthyridine-3-carboxylic acid]	0.5 (≈ 1.19 µM)	0.25 (≈ 0.597 µM)	2 (≈ 4.78 µM)	2 (≈ 4.78 µM)	1 (≈ 2.39 µM)
CC1(C)CN(c2nc3c(cc2F)c(=O)c(C(=O)O)cn3C2CC2)CCC1=C(Br)CN [Compound 176, 7-[4-(2-Amino-1-bromo-ethylidene)-3,3-dimethyl-piperidin-1-yl]-1-cyclopropyl-6-fluoro-4-oxo-1,4-dihydro-[1,8]naphthyridine-3-carboxylic acid]	0.25 (≈ 0.522 µM)	0.12 (≈ 0.25 µM)	0.5 (≈ 1.04 µM)	1 (≈ 2.09 µM)	1 (≈ 2.09 µM)
CN(C)CCNCC(Cl)=C1CCN(c2nc3c(cc2F)c(=O)c(C(=O)O)cn3C2CC2)CC1 [Compound 177, 7-{4-[1-Chloro-2-(2-dimethylamino-ethylamino)-ethylidene]-piperidin-1-yl}-1-cyclopropyl-6-fluoro-4-oxo-1,4-dihydro-[1,8]naphthyridine-3-carboxylic acid]	1 (≈ 2.09 µM)	4 (≈ 8.37 µM)	8 (≈ 16.7 µM)	> 16	> 16
C=CC(Cl)=C1CCN(c2nc3c(cc2F)c(=O)c(C(=O)O)cn3C2CC2)CC1 [Compound 178, 7-[4-(1-Chloro-allylidene)-piperidin-1-yl]-1-cyclopropyl-6-fluoro-4-oxo-1,4-dihydro-[1,8]naphthyridine-3-carboxylic acid]	0.5 (≈ 1.24 µM)	4 (≈ 9.9 µM)	1 (≈ 2.48 µM)	8 (≈ 19.8 µM)	4 (≈ 9.9 µM)
CCOC(=O)OCC(F)=C1CCN(c2nc3c(cc2F)c(=O)c(C(=O)O)cn3C2CC2)CC1 [Compound 179, 1-Cyclopropyl-7-[4-(2-ethoxycarbonyloxy-1-fluoro-ethylidene)-piperidin-1-yl]-6-fluoro-4-oxo-1,4-dihydro-[1,8]naphthyridine-3-carboxylic acid]	0.5 (≈ 1.08 µM)	2 (≈ 4.32 µM)	> 16	> 16	> 16
CN(C)CC(Cl)=C1CCN(c2nc3c(cc2F)c(=O)c(C(=O)O)cn3C2CC2)CC1 [Compound 180, 7-[4-(1-Chloro-2-dimethylamino-ethylidene)-piperidin-1-yl]-1-cyclopropyl-6-fluoro-4-oxo-1,4-dihydro-[1,8]naphthyridine-3-carboxylic acid]	0.5 (≈ 1.15 µM)	0.5 (≈ 1.15 µM)		8 (≈ 18.4 µM)	2 (≈ 4.6 µM)
O=C(O)c1cn(C2CC2)c2nc(N3CCC(=C(Cl)CN4CCCCC4)CC3)c(F)cc2c1=O [Compound 181, 7-[4-(1-Chloro-2-piperidin-1-yl-ethylidene)-piperidin-1-yl]-1-cyclopropyl-6-fluoro-4-oxo-1,4-dihydro-[1,8]naphthyridine-3-carboxylic acid]	1 (≈ 2.11 µM)	2 (≈ 4.21 µM)		> 16	8 (≈ 16.8 µM)
CN(C)CC(F)=C1CCN(c2nc3c(cc2F)c(=O)c(C(=O)O)cn3C2CC2)CC1 [Compound 182, 1-Cyclopropyl-7-[4-(2-dimethylamino-1-fluoro-ethylidene)-piperidin-1-yl]-6-fluoro-4-oxo-1,4-dihydro-[1,8]naphthyridine-3-carboxylic acid]	0.06 (≈ 0.143 µM)	0.25 (≈ 0.597 µM)		1 (≈ 2.39 µM)	2 (≈ 4.78 µM)
NCC(F)=C1CN(c2nc3c(cc2F)c(=O)c(C(=O)O)cn3-c2ccc(F)cc2F)C1 [Compound 183, 7-[3-(2-Amino-1-fluoro-ethylidene)-azetidin-1-yl]-1-(2,4-difluoro-phenyl)-6-fluoro-4-oxo-1,4-dihydro-[1,8]naphthyridine-3-carboxylic acid]	0.12 (≈ 0.276 µM)	0.25 (≈ 0.576 µM)		2 (≈ 4.6 µM)	2 (≈ 4.6 µM)
O=C(O)c1cn(-c2ccc(F)cc2F)c2nc(N3CCC(=CCO)CC3)c(F)cc2c1=O [Compound 185, 1-(2,4-Difluoro-phenyl)-6-fluoro-7-[4-(2-hydroxy-ethylidene)-piperidin-1-yl]-4-oxo-1,4-dihydro-[1,8]naphthyridine-3-carboxylic acid]	0.12 (≈ 0.269 µM)	1 (≈ 2.25 µM)	16 (≈ 35.9 µM)	16 (≈ 35.9 µM)	
COc1c(N2CC(=C(Cl)CN)C2)c(F)cc2c(=O)c(C(=O)O)cn(C3CC3)c12 [Compound 189, 7-[3-(2-Amino-1-chloro-ethylidene)-azetidin-1-yl]-1-cyclopropyl-6-fluoro-8-methoxy-4-oxo-1,4-dihydro-quinoline-3-carboxylic acid]	< 0.12	2 (≈ 4.9 µM)	4 (≈ 9.81 µM)	2 (≈ 4.9 µM)	4 (≈ 9.81 µM)
COc1c(N2CCC(=C(Cl)CN(C)C)CC2)c(F)cc2c(=O)c(C(=O)O)cn(C3CC3)c12 [Compound 191, 7-[4-(1-Chloro-2-dimethylamino-ethylidene)-piperidin-1-yl]-1-cyclopropyl-6-fluoro-8-methoxy-4-oxo-1,4-dihydro-quinoline-3-carboxylic acid]	0.25 (≈ 0.539 µM)	0.5 (≈ 1.08 µM)	8 (≈ 17.2 µM)	8 (≈ 17.2 µM)	2 (≈ 4.31 µM)
COc1c(N2CCC(=C(Cl)CN3CCCC3)CC2)c(F)cc2c(=O)c(C(=O)O)cn(C3CC3)c12 [Compound 193, 7-[4-(1-Chloro-2-pyrrolidin-1-yl-ethylidene)-piperidin-1-yl]-1-cyclopropyl-6-fluoro-8-methoxy-4-oxo-1,4-dihydro-quinoline-3-carboxylic acid]	0.12 (≈ 0.245 µM)	0.5 (≈ 1.02 µM)	8 (≈ 16.3 µM)	8 (≈ 16.3 µM)	2 (≈ 4.08 µM)
COc1c(N2CCC(=C(Cl)CN3CCCCC3)CC2)c(F)cc2c(=O)c(C(=O)O)cn(C3CC3)c12 [Compound 194, 7-[4-(1-Chloro-2-piperidin-1-yl-ethylidene)-piperidin-1-yl]-1-cyclopropyl-6-fluoro-8-methoxy-4-oxo-1,4-dihydro-quinoline-3-carboxylic acid]	0.12 (≈ 0.238 µM)	0.5 (≈ 0.992 µM)	2 (≈ 3.97 µM)	4 (≈ 7.94 µM)	1 (≈ 1.98 µM)
COc1c(N2CCC(=C(Cl)CN3CCOCC3)CC2)c(F)cc2c(=O)c(C(=O)O)cn(C3CC3)c12 [Compound 195, 7-[4-(1-Chloro-2-morpholin-4-yl-ethylidene)-piperidin-1-yl]-1-cyclopropyl-6-fluoro-8-methoxy-4-oxo-1,4-dihydro-quinoline-3-carboxylic acid]	0.12 (≈ 0.237 µM)	1 (≈ 1.98 µM)	8 (≈ 15.8 µM)	8 (≈ 15.8 µM)	2 (≈ 3.95 µM)
